Starred links: 1 amine or outer side, 2 acyl side, 3 side chain; linkers in the order of their positions; H or OH if unused. Non-standard residues stand in square brackets, D forms with d. Residues, ends and D or L forms follow the SMILES beside them. Groups on a side chain read outwards from the residue. *: point of attachment. 1Nal = N[CH](Cc1cccc2ccccc12)C(=O)O; 2Nal = N[CH](Cc1ccc2ccccc2c1)C(=O)O; Pyrazinecarbonyl = O=C(c1cnccn1)*; Hyp = O=C(O)[CH]1C[CH](O)CN1; NH(3-MeOPh) = COc1cccc(N*)c1; X2 = COc1ccccc1-c1nc(C*)no1; X7 = O=C(c1ccc(Cl)c(Cl)c1)*; X4 = FC(F)(F)Oc1ccc(C*)cc1; Isovaleryl = CC(C)CC(=O)*; X40 = CC(C)(C)c1nc(C*)no1; Abu = CC[CH](N)C(=O)O; X8 = O=C(CCN1CCCCC1)*; CO = O=C([*:1])[*:2]; Bn = c1ccc(C*)cc1
biological target: T1, HCV NS3 protease (Hepatitis C virus genotype 1a, UniProt P27958); experiment: Enzyme inhibition of HCV NS3 serine protease (cleavage of peptide substrate / EDVV AbuC-p-nitroanilide, with or without NS4A); type: biochemical; conditions: not given
T1 construct: more particularly HCV NS3 proteases
Method in brief: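 Spectrophotometric assay at 30 °C following pNA release at 405 nm from EDVV AbuC-pNA substrate, with or without NS4A. Ki from rate versus [inhibitor] fitted to Morrison's tight-binding competitive inhibition equation; Kii/Kis from mixed-inhibition fits; values reported in μM.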

T1 sequence (P27958 1027-1208): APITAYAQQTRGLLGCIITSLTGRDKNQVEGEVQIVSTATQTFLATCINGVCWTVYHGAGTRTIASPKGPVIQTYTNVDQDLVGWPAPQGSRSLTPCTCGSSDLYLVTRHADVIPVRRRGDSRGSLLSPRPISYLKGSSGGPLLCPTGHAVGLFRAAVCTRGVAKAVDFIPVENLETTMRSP

Row | SMILES | Ki [µM]
1 | CCC(NC(=O)C(CC(C)C)NC(=O)C(NC(=O)C(NC(=O)c1cnccn1)C(C)C)C(C)C)C(=O)C(=O)N[C@H](CC)c1ccccc1 (stereo partly shown) [Compound 120] | 1 to 100

same assay, conditions: Enzyme inhibition data; Ki from rate vs [inhibitor] plots, Morrison tight binding competitive inhibition fit; 30 C, pH 7.8; read-out: Ki

Row | SMILES | Ki [µM]
2 | CCC(C=O)NC(=O)C1CC(OCc2ccccc2)CN1C(=O)C(NC(=O)Cc1ccccc1[N+](=O)[O-])C(C)C (stereo not shown) [Compound 161] | > 100
3 | CCC(NC(=O)C(CC(C)C)NC(=O)C(NC(=O)C(NC(=O)c1cnccn1)C(C)C)C(C)C)C(=O)C(=O)NCC(C)OC (stereo not shown) [Compound 123] | 1 to 100
4 | CCC(C=O)NC(=O)C1CC(OCc2ccccc2)CN1C(=O)C(NC(=O)C(Cc1cccc2ccccc12)NC(=O)c1cnccn1)C(C)C (stereo not shown) [Compound 131] (Pyrazinecarbonyl-[1Nal]V[Hyp](Bn)[Abu]-aldehyde; configuration not given here) | 1 to 100
5 | CCC(C=O)NC(=O)C1CC(OCc2noc(-c3ccccc3OC)n2)CN1C(=O)C(NC(=O)C(NC(=O)c1cnccn1)C(C)C)C(C)C (stereo not shown) [Compound 14] (Pyrazinecarbonyl-VV[Hyp](X2)[Abu]-aldehyde; configuration not given here) | 1 to 100
6 | CCC(C=O)NC(=O)C1CC(OCc2ccccc2)CN1C(=O)C(NC(=O)c1cc(C)oc1C)C(C)C (stereo not shown) [Compound 189] | > 100
7 | CCC(C=O)NC(=O)C1CC(OC(=O)CC(C)C)CN1C(=O)C(NC(=O)C(NC(=O)c1cnccn1)C(C)C)C(C)C (stereo not shown) [Compound 29] (Pyrazinecarbonyl-VV[Hyp](Isovaleryl)[Abu]-aldehyde; configuration not given here) | 1 to 100
8 | CCC(C=O)NC(=O)C1CC(OCc2ccccc2)CN1C(=O)C(NC(=O)C(Cc1ccc2ccccc2c1)NC(=O)c1cnccn1)C(C)C (stereo not shown) [Compound 132] (Pyrazinecarbonyl-[2Nal]V[Hyp](Bn)[Abu]-aldehyde; configuration not given here) | 1 to 100
9 | CCC(C=O)NC(=O)C1CC(OCc2ccccc2)CN1C(=O)C(NC(=O)c1cccc(C)c1O)C(C)C (stereo not shown) [Compound 192] | > 100
10 | CCC(C=O)NC(=O)C(CC(C)C)NC(=O)C(NC(=O)C(NC(=O)CCN1CCCCC1)C(C)C)C(C)C (stereo not shown) [Compound 97] (X8-VVL[Abu]-aldehyde; configuration not given here) | 1 to 100
11 | CCC(C=O)NC(=O)C1CC(OCc2ccccc2)CN1C(=O)C(NC(=O)CCOc1ccccc1)C(C)C (stereo not shown) [Compound 171] | > 100
12 | CCC(C=O)NC(=O)C1CC(OC(=O)c2ccc(Cl)c(Cl)c2)CN1C(=O)C(NC(=O)C(NC(=O)c1cnccn1)C(C)C)C(C)C (stereo not shown) [Compound 27] (Pyrazinecarbonyl-VV[Hyp](X7)[Abu]-aldehyde; configuration not given here) | 1 to 100
13 | CCC(C=O)NC(=O)C1CC(OCc2noc(C(C)(C)C)n2)CN1C(=O)C(NC(=O)C(NC(=O)c1cnccn1)C(C)C)C(C)C (stereo not shown) [Compound 6] (Pyrazinecarbonyl-VV[Hyp](X40)[Abu]-aldehyde; configuration not given here) | 1 to 100
14 | CCC(C=O)NC(=O)C1CC(OCc2ccc(OC(F)(F)F)cc2)CN1C(=O)C(NC(=O)C(NC(=O)c1cnccn1)C(C)C)C(C)C (stereo not shown) [Compound 18] (Pyrazinecarbonyl-VV[Hyp](X4)[Abu]-aldehyde; configuration not given here) | 1 to 100
15 | CCC(C=O)NC(=O)C1CC(OC(=O)Nc2cccc(OC)c2)CN1C(=O)C(NC(=O)C(NC(=O)c1cnccn1)C(C)C)C(C)C (stereo not shown) [Compound 42] (Pyrazinecarbonyl-VV[Hyp]([CO-NH(3-MeOPh)])[Abu]-aldehyde; configuration not given here) | 1 to 100
16 | CCCC(C(=O)NC(C(=O)N1CC(OCc2ccccc2)CC1C(=O)NC(C=O)CC)C(C)C)c1ccccc1 (stereo not shown) [Compound 174] | 1 to 100

Reference: US7388017B2, “Inhibitors of serine proteases, particularly hepatitis C virus NS3 protease” (Vertex Pharmaceuticals Incorporated, priority 1996, dated 2008)
